# Measured values published in ChEMBL document CHEMBL3885881, “DrugMatrix”.
# Species: Rattus norvegicus
# Experiment: DrugMatrix - Regimen: Daily Repeat
# Assay type: toxicity, organism-based, Sprague-Dawley
# Design: regimen Daily Repeat, gender Male, age 6-8 weeks
# Settings: in vivo, po, route oral GAVAGE, […]; for ABSOLUTE BASOPHIL / ABSOLUTE EOSINOPHIL / ABSOLUTE LYMPHOCYTE / ABSOLUTE MONOCYTE / ABSOLUTE SEGMENTED NEUTROPHIL / BASOPHIL / EOSINOPHIL / ERYTHROCYTE COUNT / HEMATOCRIT / HEMOGLOBIN / LEUKOCYTE COUNT / LYMPHOCYTE / MEAN CORPUSCULAR HEMOGLOBIN / MEAN CORPUSCULAR HEMOGLOBIN CONCENTRATION / MEAN CORPUSCULAR VOLUME / MONOCYTE / NEUTROPHIL / NUCLEATED RED BLOOD CELLS / PLATELET COUNT: tissue Blood; for ALANINE AMINOTRANSFERASE / ALBUMIN / ALKALINE PHOSPHATASE / ASPARTATE AMINOTRANSFERASE / BLOOD UREA NITROGEN / CARBON DIOXIDE / CHLORIDE / CHOLESTEROL / CREATINE PHOSPHOKINASE / CREATININE / GLUCOSE / LACTATE DEHYDROGENASE / LIPASE / PHOSPHORUS / POTASSIUM / SODIUM / TOTAL BILIRUBIN / TOTAL PROTEIN / URIC ACID: tissue Plasma
# [1] = 0 mg/kg, 72 h, dose level Control, time 3 day
# [2] = 0 mg/kg, 120 h, dose level Control, time 5 day
# [3] = 12 mg/kg, 72 h, dose level Low, time 3 day
smiles,measurement,setting,value
COc1ncnc(NS(=O)(=O)c2ccc(N)cc2)c1OC [SULFADOXINE],ABSOLUTE BASOPHIL,[1],0 CELLS/uL
same,ABSOLUTE EOSINOPHIL,[1],41.83 CELLS/uL
same,ABSOLUTE LYMPHOCYTE,[1],8545.5 CELLS/uL
same,ABSOLUTE MONOCYTE,[1],240 CELLS/uL
same,ABSOLUTE SEGMENTED NEUTROPHIL,[1],906 CELLS/uL
same,BASOPHIL,[1],0%
same,EOSINOPHIL,[1],0.33%
same,ERYTHROCYTE COUNT,[1],5.6 x10E6/uL
same,HEMATOCRIT,[1],35.4%
same,HEMOGLOBIN,[1],13.42 G/DL
same,LEUKOCYTE COUNT,[1],9.73 x10E3/uL
same,LYMPHOCYTE,[1],87.83%
same,MEAN CORPUSCULAR HEMOGLOBIN,[1],23.98 pg
same,MEAN CORPUSCULAR HEMOGLOBIN CONCENTRATION,[1],37.92 G/DL
same,MEAN CORPUSCULAR VOLUME,[1],63.3 fL
same,MONOCYTE,[1],2.5%
same,NEUTROPHIL,[1],9.33%
same,NUCLEATED RED BLOOD CELLS,[1],0 /100WBC
same,PLATELET COUNT,[1],1032 x10E3/uL
same,ALANINE AMINOTRANSFERASE,[1],72.83 u/L
same,ALBUMIN,[1],4 G/DL
same,ALKALINE PHOSPHATASE,[1],322.83 u/L
same,ASPARTATE AMINOTRANSFERASE,[1],102.67 u/L
same,BLOOD UREA NITROGEN,[1],12 mg/dL
same,CARBON DIOXIDE,[1],34.33 mmol/L
same,CHLORIDE,[1],97.67 MEQ/L
same,CHOLESTEROL,[1],82.5 mg/dL
same,CREATINE PHOSPHOKINASE,[1],410.33 u/L
same,CREATININE,[1],0.18 mg/dL
same,GLUCOSE,[1],164.5 mg/dL
same,LACTATE DEHYDROGENASE,[1],119.5 u/L
same,LIPASE,[1],11.83 u/L
same,PHOSPHORUS,[1],9.52 mg/dL
same,POTASSIUM,[1],5.56 MEQ/L
same,SODIUM,[1],142.48 MEQ/L
same,TOTAL BILIRUBIN,[1],0.18 mg/dL
same,TOTAL PROTEIN,[1],5.77 G/DL
same,URIC ACID,[1],0.48 mg/dL
same,ABSOLUTE BASOPHIL,[2],0 CELLS/uL
same,ABSOLUTE EOSINOPHIL,[2],0 CELLS/uL
same,ABSOLUTE LYMPHOCYTE,[2],9065 CELLS/uL
same,ABSOLUTE MONOCYTE,[2],341.33 CELLS/uL
same,ABSOLUTE SEGMENTED NEUTROPHIL,[2],527 CELLS/uL
same,BASOPHIL,[2],0%
same,EOSINOPHIL,[2],0%
same,ERYTHROCYTE COUNT,[2],5.25 x10E6/uL
same,HEMATOCRIT,[2],34.08%
same,HEMOGLOBIN,[2],13.5 G/DL
same,LEUKOCYTE COUNT,[2],9.93 x10E3/uL
same,LYMPHOCYTE,[2],91.17%
same,MEAN CORPUSCULAR HEMOGLOBIN,[2],25.7 pg
same,MEAN CORPUSCULAR HEMOGLOBIN CONCENTRATION,[2],39.62 G/DL
same,MEAN CORPUSCULAR VOLUME,[2],64.93 fL
same,MONOCYTE,[2],3.33%
same,NEUTROPHIL,[2],5.5%
same,NUCLEATED RED BLOOD CELLS,[2],0 /100WBC
same,PLATELET COUNT,[2],1077.5 x10E3/uL
same,ALANINE AMINOTRANSFERASE,[2],57.83 u/L
same,ALBUMIN,[2],4.07 G/DL
same,ALKALINE PHOSPHATASE,[2],319.17 u/L
same,ASPARTATE AMINOTRANSFERASE,[2],83.33 u/L
same,BLOOD UREA NITROGEN,[2],13.67 mg/dL
same,CARBON DIOXIDE,[2],30.83 mmol/L
same,CHLORIDE,[2],98.33 MEQ/L
same,CHOLESTEROL,[2],64.83 mg/dL
same,CREATINE PHOSPHOKINASE,[2],263.67 u/L
same,CREATININE,[2],0.2 mg/dL
same,GLUCOSE,[2],182.83 mg/dL
same,LACTATE DEHYDROGENASE,[2],124 u/L
same,LIPASE,[2],10.5 u/L
same,PHOSPHORUS,[2],10 mg/dL
same,POTASSIUM,[2],5.78 MEQ/L
same,SODIUM,[2],142.48 MEQ/L
same,TOTAL BILIRUBIN,[2],0.2 mg/dL
same,TOTAL PROTEIN,[2],6 G/DL
same,URIC ACID,[2],0.7 mg/dL
same,ABSOLUTE BASOPHIL,[3],0 CELLS/uL
same,ABSOLUTE EOSINOPHIL,[3],0 CELLS/uL
same,ABSOLUTE LYMPHOCYTE,[3],9669.67 CELLS/uL
same,ABSOLUTE MONOCYTE,[3],359.33 CELLS/uL
same,ABSOLUTE SEGMENTED NEUTROPHIL,[3],937.67 CELLS/uL
same,BASOPHIL,[3],0%
same,EOSINOPHIL,[3],0%
same,ERYTHROCYTE COUNT,[3],5.36 x10E6/uL
same,HEMATOCRIT,[3],34.67%
same,HEMOGLOBIN,[3],13.5 G/DL
same,LEUKOCYTE COUNT,[3],10.97 x10E3/uL
same,LYMPHOCYTE,[3],88.33%
same,MEAN CORPUSCULAR HEMOGLOBIN,[3],25.23 pg
same,MEAN CORPUSCULAR HEMOGLOBIN CONCENTRATION,[3],38.97 G/DL
same,MEAN CORPUSCULAR VOLUME,[3],64.87 fL
same,MONOCYTE,[3],2.67%
same,NEUTROPHIL,[3],9%
same,NUCLEATED RED BLOOD CELLS,[3],0 /100WBC
same,PLATELET COUNT,[3],1062.67 x10E3/uL
same,ALANINE AMINOTRANSFERASE,[3],67.67 u/L
same,ALBUMIN,[3],4 G/DL
same,ALKALINE PHOSPHATASE,[3],358.33 u/L
same,ASPARTATE AMINOTRANSFERASE,[3],91.33 u/L
same,BLOOD UREA NITROGEN,[3],12.67 mg/dL
same,CARBON DIOXIDE,[3],32.33 mmol/L
same,CHLORIDE,[3],98.33 MEQ/L
same,CHOLESTEROL,[3],76.33 mg/dL
same,CREATINE PHOSPHOKINASE,[3],340.67 u/L
same,CREATININE,[3],0.29 mg/dL
same,GLUCOSE,[3],154.67 mg/dL
same,LACTATE DEHYDROGENASE,[3],166 u/L
same,LIPASE,[3],10.67 u/L
same,PHOSPHORUS,[3],10.17 mg/dL
same,POTASSIUM,[3],5.55 MEQ/L
same,SODIUM,[3],143.6 MEQ/L
same,TOTAL BILIRUBIN,[3],0.23 mg/dL
same,TOTAL PROTEIN,[3],5.77 G/DL
same,URIC ACID,[3],0.33 mg/dL
